The test system of this assay is MDA-MB-468 breast. As to the kind of experiment: NCI-60 cell line screen, 48 h.

Where “and” joins values, the source holds several entries; their conditions need not be identical. Equal entries are not always repeated.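 Test compounds were applied to cells in 96-well plates for 48 hours at 5 doses. The concentration for 50% growth inhibition is given as GI50. At the TGI there is no net growth.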 Residues, ends and D or L forms follow the SMILES beside them. *: point of attachment. Cbz = O=C(OCc1ccccc1)* Bounds are passed on as bounds.

The values that follow come from PubChem BioAssay (NCI).

With `Cc1[nH]nc2ncc(C(=O)N3CCC[C@H]3c3ccc(Cl)cc3)cc12`, the GI50 is 33300 nM and the TGI was more than 100000 nM.
For `NC(=O)c1cc(Br)ccc1NC(=O)/C=C/c1ccccc1`, the GI50 was 837 nM and the TGI is 4320 nM.
`O=c1oc2ccc(Br)cc2c(=O)n1-c1ccc(Cl)cc1F`: the GI50 was 1380 nM and the TGI was 5190 nM.
As to `COC(=O)[C@@H](C)C[C@H](Cc1ccccc1)NC(=O)c1csc([C@@H](C[C@H](C(C)C)N(C)C(=O)[C@@H](NC(=O)[C@H]2CCCN2C)C2CC2)OC(C)=O)n1`, the GI50 is 0.328 nM and 2.5 nM; the TGI is more than 25000 nM.
As to `Cc1sc2c(c1C)C(c1ccc(Cl)cc1)=N[C@@H](CC(=O)NCCCN1CCN(C)CC1)c1nnc(C)n1-2`, the GI50 is 197 nM and the TGI is more than 100000 nM.
The corresponding values for `O=C(O)c1cn(C2CC2)c2cc(N3CCN(Cc4c(O)ccc5ccccc45)CC3)c(F)cc2c1=O` are 15200 nM and more than 100000 nM.
Regarding `O=C1NC(=NCCc2ccccn2)S/C1=C\c1ccc2ncccc2c1`, the GI50 is 5770 nM and the TGI is more than 25000 nM.
`CC/C=C\C[C@H](O)C/C=C1/C(=O)C=C[C@@H]1C/C=C\CCCCO`: the GI50 is 1970 nM and the TGI was 4650 nM.
For the molecule `O=C1CC(N2C(=O)/C(=C/C(Cl)=C\c3ccc([N+](=O)[O-])cc3)SC2=S)C(=O)N1c1ccc(O)cc1` (centres undefined), the GI50 is 1870 nM and the TGI came to 5700 nM.
For `CCCN(CCC)c1ccc(C=O)c(C)c1`, the GI50 is 1980 nM and the TGI is 32500 nM.
Consider `Cn1c(=O)c(Oc2ccc(F)cc2F)cc2cnc(NC3CCOCC3)nc21`, for which the GI50 was more than 25000 nM and the TGI is more than 25000 nM.
For the molecule `CN1CCN(Cc2ccc(NC(=O)c3cncc(C#Cc4cnc5ccc(OC6CCOCC6)nn45)c3)cc2C(F)(F)F)CC1`, the GI50 is 105 nM and the TGI stood at 278 nM.
As to `CN(C)CCOc1ccccc1NC1=C(Cl)C(=O)C(Nc2ccccc2OCCN(C)C)=C(Cl)C1=O`, the GI50 is 579 nM and the TGI stood at 1170 nM.
In the same order, the values of `COc1cc(C2CC(=O)Nc3c2c(C)nn3-c2nc3ccccc3[nH]2)cc(OC)c1O` (centres undefined) are 2370 nM and 7090 nM.
Take `COc1ccc(Cn2cc3c(c2-c2cc(OC)c(OC)c(OC)c2)CCc2c(CO)noc2-3)cc1`: the GI50 was 307 nM and the TGI came to 18900 nM.
Regarding `CNC(=O)c1cccc(C#Cc2cncnc2Nc2ccc(OCc3cccc(F)c3)c(Cl)c2)c1`, the GI50 was 616 nM and the TGI came out at 4050 nM.
In the case of `CCCCCCCCCCCCCCCCN(CC)CC`, the GI50 was 2210 nM and the TGI was 4550 nM.
In the case of `C=CC(=O)Nc1cccc(Oc2nc(Nc3ccc(N4CCN(C)CC4)cc3OC)ncc2Cl)c1`, the GI50 is 113 nM and the TGI is 518 nM.
For the molecule `COc1cc(/C=C/C(=O)c2c(-c3ccc(F)cc3)nc3sc(C)nn23)cc(OC)c1OC`, the GI50 is 1920 nM and the TGI is 7740 nM.
Consider `Cc1cccc(Cl)c1NC(=O)c1cnc(Nc2cc(N3CCOCC3)cc(S(C)(=O)=O)c2)s1`, for which the GI50 is 1470 nM and the TGI was 8030 nM.
In the case of `CN(C)C=Nc1c(I)cc(I)c(CCC(=O)O)c1I`, the GI50 is more than 100000 nM and the TGI was more than 100000 nM.
`C=CC(=O)N1CC[C@H](n2nc(C#Cc3cc(OC)cc(OC)c3)c3c(N)ncnc32)C1`: the GI50 is 3330 nM and the TGI amounted to 78500 nM.
`Cc1[nH]c(C(=O)Nc2ccccc2OCc2cccc(C(=O)NC3CCNC3)c2)c(Cl)c1Cl` (centres undefined): the GI50 is 1890 nM and the TGI stood at 3600 nM.
`Oc1ccccc1/C=N\NC(=S)N/N=C/c1ccccc1O`: the GI50 is 2240 nM and the TGI was 30500 nM.
In the same order, the values of `Cc1ccc(OCCOCCOCCOCCOCCOc2ccc(C)n(O)c2=S)c(=S)n1O` are 36.8 nM and 412 nM.
In the same order, the values of `Nc1ncn([C@H]2C[C@H](OP(=O)(O)OC[C@H]3O[C@@H](n4cnc5c(=O)[nH]c(N)nc54)C[C@@H]3O)[C@@H](CO)O2)c(=O)n1` are 154 nM and 67900 nM.
In the same order, the values of `COc1ccc2c(c1)C(c1cc(OC)c3c(c1)OCO3)C1=C(COC1=O)N2` (centres undefined) are 205 nM and 849 nM.
With `C[C@H]1CCC/C=C/[C@@H]2C[C@H](O)C[C@H]2[C@H](O)/C=C/C(=O)O1`, the GI50 is 31.2 nM and the TGI came to 268 nM.
Turning to `CC(=O)N[C@@H](Cc1ccc(OP(=O)(O)O)cc1)C(=O)N[C@H]1CCC(=O)N2CCC[C@@H](C(=O)NCc3ccccc3)N2C1=O`, the GI50 is more than 25000 nM and the TGI is more than 25000 nM.
Consider `O=C1c2c(Cl)c(Cl)c(Cl)c(Cl)c2C(=O)C2(Cl)CC=CCC12Cl` (centres undefined), for which the GI50 is 1210 nM and the TGI turned out to be 2880 nM.
In the same order, the values of `COc1cc2nc3cc([N+](=O)[O-])ccc3c(NCCNCC(C)O)c2cc1OC` (centres undefined) are 203 nM and 542 nM.
In the same order, the values of `C=CCOC(=O)Nc1cccn([C@H](CC(C)C)C(=O)NCCC(C)C)c1=O` are 42400 nM and more than 100000 nM.
Turning to `CC(C)Cc1ccc(C(C)C(=O)NCc2ccc(Cn3c(=O)sn(CCCI)c3=O)cc2)cc1` (centres undefined), the GI50 is 423 nM and the TGI was 1620 nM.
On to `NC(=O)n1c(=O)n(-c2cccc(C(F)(F)F)c2)c(=O)c2cc(-c3ccc(F)cc3F)ccc21`, for which the GI50 is 1840 nM and the TGI amounted to 5830 nM.
On to `NCCSC(c1ccccc1)(c1ccccc1)c1ccccc1`, for which the GI50 is 357 nM and the TGI was 1630 nM.
Consider `COC(=O)CNc1nc(N(C)O)nc(N(C)O)n1`, for which the GI50 was 2160 nM and the TGI was 17400 nM.
Take `Cc1ccsc1-c1ccc2c(c1)COC2(CCCN(C)C)c1ccc(F)cc1` (centres undefined): the GI50 is 1580 nM and the TGI was 3060 nM.
Turning to `Cc1ccccc1C(C(=O)NC1CCCCC1)N(C(=O)CNc1ccc(C#N)cc1)c1cccc(F)c1` (centres undefined), the GI50 is 25700 nM and the TGI was more than 100000 nM.
With `N#CC1=C(N)Oc2c(sc3c(Br)cccc23)C1c1ccc(Cl)cc1` (centres undefined), the GI50 is 521 nM and the TGI is 3200 nM.
Regarding `Cn1cc(C2=C(c3cn(CCCCCO)c4ccccc34)C(=O)NC2=O)c2ccccc21`, the GI50 is 3470 nM and the TGI was determined as 14100 nM.
On to `CN(C)CCS(=O)(=O)Nc1cc(-c2ccc3ncc(C#N)c(Nc4ccc(F)c(Cl)c4)c3c2)cnc1Cl`, for which the GI50 was 58.3 nM and the TGI was found to be 233 nM.
In the case of `O=S(=O)(NCCCNc1cc(-c2cn(-c3ccccc3)nc2-c2cccc(O)c2)ccn1)c1ccc(Br)cc1`, the GI50 was 1540 nM and the TGI was 5610 nM.
In the same order, the values of `COc1ccc(-c2[nH]nc(N)c2-c2cc(OC)c(OC)c(OC)c2)cc1` are 36.8 nM and 6230 nM.
In the case of `O=[N+]([O-])c1ccc2c(c1)C(c1ccccc1Cl)=Nc1c(n[nH]c1-c1cccnc1)N2`, the GI50 was more than 25000 nM and the TGI is more than 25000 nM.
In the case of `C=C1CC2C3C=C(C)C4=CC(=O)CC[C@]4(C)C3CC[C@]2(C)[C@@]1(OC(C)=O)C(C)=O` (some centres undefined), the GI50 is 3230 nM and the TGI was more than 100000 nM.
Consider `CC1Cc2ccccc2N1C(=O)Cc1nc(N2CCOCC2)cc(=O)[nH]1` (centres undefined), for which the GI50 was 2060 nM and 5780 nM; the TGI is 17100 nM and 47500 nM.
With `C=C1C(=O)O[C@H]2[C@H]1CC/C(CNC(=O)/C=C/c1ccccc1F)=C\CC[C@@]1(C)O[C@@H]21`, the GI50 was 493 nM and the TGI came out at 1960 nM.
As for `CCNCCNc1cc(-c2ccc(C(F)(F)F)cc2)c(C#N)c2nc3cc(Cl)c(Cl)cc3n12`, the GI50 was 1830 nM and the TGI is 3390 nM.
In the same order, the values of `Cc1ccccc1C(C(=O)NC1CCCCC1)N(C(=O)CNc1ncccc1F)c1cccc(F)c1` (centres undefined) are more than 65600 nM and more than 100000 nM.
On to `CN(C)Cc1c(C(=O)NCCOc2ccc(C(=O)NO)cc2)oc2ccccc12`, for which the GI50 was 152 nM and the TGI worked out at 2360 nM.
The corresponding values for `NC(N)=Nc1ccc(/C=C2\C=Cc3ccccc32)cc1` are 148 nM and 969 nM.
In the same order, the values of `CC(C)C[C@@H](C=O)NC(=O)[C@H](CC(C)C)NC(=O)[C@H](CC(C)C)NC(=O)OCc1ccccc1` (Cbz-Leu-Leu-Leu-aldehyde) are 249 nM and 663 nM.
